Source: patent US11459308B2 (priority 2016, dated 2022)

How the values were obtained:
[1] = system: authentic EBOV (EBOV-Zaire 1995); assay: microbe, parasite or virus in culture; format: cell-based, Ebola virus; conditions: Zaire ebolavirus, Vero, 48 h, read-out: infectious EBOV-Z IC50
[2] = in vitro; conditions: African green monkey
[3] = system: rVSV-EBOV GP; assay: microbe, parasite or virus in culture; format: cell-based, Zaire Ebolavirus; conditions: for IC50: Zaire ebolavirus, read-out: rVSV-EBOV IC50
[4] = system: rVSV-BDBV GP; format: cell-based, Bundybugyo Ebolavirus
[5] = system: rVSV-SUDV GP; format: cell-based, Sudan Ebolavirus
[6] = system: EBOV-GPCL/NPC1-C interaction; format: binding, human

Compound	IC50 [1]	CC50 [2]	inhibition of infection of Vero cells by rVSV-EBOV GP [3]	IC50 [3]	inhibition of infection of Vero cells by rVSV-BDBV GP [4]	inhibition of infection of Vero cells by rVSV-SUDV GP [5]	inhibition of GPCL-NPC1-C AlphaLISA compared with biotin-streptavidin AlphaLISA [6]	selectivity for inhibition of the EBOV-GPCL/NPC1-C interaction vs. the biotin-streptavidin interaction [6]
O=[N+]([O-])c1ccc(N2CCN(Cc3ccoc3)CC2)cc1NC(c1ccccc1)c1ccccc1 [MBX 3574, 1-(benzhydrylamino)-5-[4-(furan-3-ylmethyl)piperazin-1-yl]-2-nitrobenzene]	1.2 µM	> 200 µM	potent inhibitors	0.56 µM	potent inhibitors	potent inhibitors	–	–
O=[N+]([O-])c1ccc(N2CCN(CCO)CC2)cc1NC(c1ccccc1)c1ccccc1 [MBX 3588, 1-(benzhydrylamino)-5-[4-(2-hydroxyethyl)piperazin-1-yl]-2-nitrobenzene]	0.73 µM	21 µM	–	1.4 µM	–	–	much more potently	about 10 fold
COCCN1CCN(c2ccc([N+](=O)[O-])c(NC(c3ccccc3)c3ccccc3)c2)CC1 [MBX 3591, 1-(benzhydrylamino)-5-[4-(2-methoxyethyl)piperazin-1-yl]-2-nitrobenzene]	1.4 µM	> 100 µM	–	1.6 µM	–	–	–	–
O=[N+]([O-])c1ccc(N2CCN(CCCO)CC2)cc1NC(c1ccccc1)c1ccccc1 [MBX 3610, 2-(benzhydrylamino)-4-[4-(3-hydroxypropyl)piperazin-1-yl]nitrobenzene]	0.6 µM	17 µM	–	0.6 µM	–	–	–	–
CC(C)(C)N1CCN(c2ccc([N+](=O)[O-])c(NC(c3ccccc3)c3ccccc3)c2)CC1 [MBX 3625, 2-benzhydrylamino-4-(4-tert-butylpiperazin-1-yl)nitrobenzene]	0.78 µM	> 100 µM	–	0.85 µM	–	–	–	–
Cc1ccccc1C(Nc1cc(N2CCN(C)CC2)ccc1[N+](=O)[O-])c1ccccc1 (centres unmarked) [MBX 3633, 2-[phenyl(o-tolyl)methylamino]-4-(4-methylpiperazin-1-yl)nitrobenzene]	1.3 µM	15 µM	–	1.5 µM	–	–	–	–
Cc1cccc(C(Nc2cc(N3CCN(C)CC3)ccc2[N+](=O)[O-])c2ccccc2)c1 (centres unmarked) [MBX 3634, 2-[phenyl(m-tolyl)methylamino]-4-(4-methylpiperazin-1-yl)nitrobenzene]	3 µM	> 100 µM	–	3.4 µM	–	–	–	–
CN1CCN(c2ccc([N+](=O)[O-])c(NC(c3ccccc3)c3cccc(Cl)c3)c2)CC1 (centres unmarked) [MBX 3643, 2-[(3-chlorophenyl)(phenyl)methylamino]-4-(4-methylpiperazin-1-yl)nitrobenzene]	> 20 µM	21 µM	–	0.85 µM	–	–	–	–
CN(C)CCN(C)c1ccc([N+](=O)[O-])c(NC(c2ccccc2)c2ccccc2)c1 [MBX 3729, 2-(benzhydrylamino)-4-{[2-(dimethylamino)ethyl](methyl)amino}-1-nitrobenzene]	1.3 µM	10 µM	–	< 0.1 µM	–	–	–	–
CN1CCN(c2ccc([N+](=O)[O-])c(NC(C)(C)c3ccccc3)c2)CC1 [MBX 3741, 2-(2-phenylpropan-2-ylamino)-4-(4-methylpiperazin-1-yl)-1-nitrobenzene]	10.3 µM	85 µM	–	3.1 µM	–	–	–	–
CN1CCN(c2cc(C#N)c([N+](=O)[O-])c(NC(c3ccccc3)c3ccccc3)c2)CC1 [MBX 3743, 2-(benzhydrylamino)-4-(4-methylpiperazin-1-yl)-6-cyano-1-nitrobenzene]	2 µM	> 100 µM	–	2 µM	–	–	–	–
CC(C)(C)N1CCCN(c2ccc([N+](=O)[O-])c(NC(c3ccccc3)c3ccccc3)c2)CC1 [MBX 3748, 2-(benzhydrylamino)-4-[4-(tert-butyl)-1,4-diazepan-1-yl]-1-nitrobenzene]	0.7 µM	23 µM	–	0.25 µM	–	–	–	–
c1ccc(C(c2ccccc2)n2cnc3ccc(N4CCN5CCCC5C4)cc32)cc1 (centres unmarked) [MBX 4210, 1-benzhydryl-6-(hexahydropyrrolo[1,2-a]pyrazin-2(1H)-yl)-1H-benzo[d]imidazole]	1.8 µM	> 200 µM	–	1.6 µM	–	–	–	–
CC1CN(c2ccc3ncn(C(c4ccccc4)c4ccccc4)c3c2)CCN1C (centres unmarked) [MBX 4212, 1-benzhydryl-6-(3,4-dimethylpiperazin-1-yl)-1H-benzo[d]imidazole]	0.53 µM	170 µM	–	1.6 µM	–	–	–	–
CN(C)CCNc1ccc2ncn(C(c3ccccc3)c3ccccc3)c2c1 [MBX 4251, N^1-(1-benzhydryl-1H-benzo[d]imidazol-6-yl)-N^2,N^2-dimethylethane-1,2-diamine]	2.66 µM	105 µM	–	2.01 µM	–	–	–	–
CN(C)CCCNc1ccc2ncn(C(c3ccccc3)c3ccccc3)c2c1 [MBX 4252, N^1-(1-benzhydryl-1H-benzo[d]imidazol-6-yl)-N^3,N^3-dimethylpropane-1,3-diamine]	8.62 µM	50 µM	–	3.93 µM	–	–	–	–
CC(C)N(CCNc1ccc2ncn(C(c3ccccc3)c3ccccc3)c2c1)C(C)C [MBX 4253, N1-(1-benzhydryl-1H-benzo[d]imidazol-6-yl)-N2,N2-diisopropylethane-1,2-diamine 2,2,2-trifluoroacetate]	1.85 µM	95 µM	–	1.3 µM	–	–	–	–
CN(C)CCNc1ccc([N+](=O)[O-])c(NC(c2ccccc2)c2ccccc2)c1 [MBX 4334, N^3-benzhydryl-N^1-(2-(dimethylamino)ethyl)-4-nitrobenzene-1,3-diamine]	0.82 µM	16 µM	–	1.04 µM	–	–	–	–
CN(C)CCCNc1ccc([N+](=O)[O-])c(NC(c2ccccc2)c2ccccc2)c1 [MBX 4335]	0.48 µM	11 µM	–	0.79 µM	–	–	–	–
CC(C)N(CCNc1ccc([N+](=O)[O-])c(NC(c2ccccc2)c2ccccc2)c1)C(C)C [MBX 4336, N^3-benzhydryl-N^1-(2-(diisopropylamino)ethyl)-4-nitrobenzene-1,3-diamine]	0.56 µM	12 µM	–	0.39 µM	–	–	–	–
CN1CCN(c2ccc([N+](=O)[O-])c(NC(c3ccccc3)c3ccccc3)c2)CC1 [PPZ-1, N-benzhydryl-5-(4-methylpiperazin-1-yl)-2-nitroaniline]	2.3 µM	61 µM	–	1.2 µM	–	–	–	–
